# Laboratory results: patent publication US7756643B2, “Method for determining the biological effect and/or activity of at least one drug, chemical substances and/or pharmaceutical composition based on their effect on the methylation status of DNA” (Epigenomics AG, priority 2001, dated 2010)
# Where no end group is shown, it is not given here.
# Columns and labels:
# CpGs of the Fas-L gene = test: Peptide library screening: methylation status of CpGs in a T-cell line; assay type: cell-based; settings: 10 days, versus untreated control
# Protocol: A peptide library was prepared in a 96-well culture plate which contained overlapping peptide fragments derived from the peptide sequence of human serum albumine (HSA). As positive controls, each of vasoactive intestinal peptide (VIP) and pituitary adenylate cyclase-activating polypeptide (PACAP) was added in one of the wells.
# A T-cell line (example?) was incubated together with the peptides and VIP or PACAP. After 10 days, the cells of the VIP/PACAP and HSA peptide treated as well as untreated control cell line cultures were collected by centrifugation and the chromosomal DNA was prepared using QIAamp DNA Mini Kit as recommended by the manufacturer (Quiagen, Hilden, Germany).
# Subsequently, the chromosomal DNAs were bisulphite treated as published, for example, according to Olek et al. 6 different multiplex PCR reactions were performed on the 3 bisulphite DNA samples (untreated control, HSA and VIP/PACAP treated samples) using Cy5-labelled primer. The products of the methylation specific PCR reactions performed on the same DNA samples were combined. These complex mixtures of 64 PCR products derived from the three DNA samples were comparatively hybridised onto oligo micro arrays representing 256 CpG and the methylation statuses of the CpGs were analysed according to a method described in WO 99/28498.
# T cells = settings: through down-regulation of Fas ligand (FasL); cited from earlier work
Substance,methylation status of CpGs of the Fas-L gene (CpGs of the Fas-L gene),protection of T cells from activation-induced cell death (T cells)
"vasoactive intestinal peptide (HSDAVFTDNYTRLRKQMAVKKYLNSILN; ends and bridges not checked; UniProt P01282 125-152, looked up) [VIP, positive control peptide]",significantly changed,protect T cells from activation-induced cell death
"pituitary adenylate cyclase-activating polypeptide (HSDGIFTDSYSRYRKQMAVKKYLAAVLGKRYKQRVKNK; ends and bridges not checked; UniProt P18509 132-169, looked up) [PACAP, positive control peptide]",significantly changed,protect T cells from activation-induced cell death
